Patent US6521252B1, “Transfecting compounds which are sensitive to reducing conditions, pharmaceutical compositions containing them and their applications” (Aventis Pharma S.A., priority 1998, dated 2003)

What was measured:
[1] = test system: HepG2 cells; experiment: In vitro transfection efficiency, luciferase expression, HepG2 cells; type: cell-based; conditions: for inhibition of transfection due to the presence of serum proteins (in words): presence vs absence of serum
Experimental: (§1) The plasmid used is described in Patent WO 97/10343. This construct pCOR_pXL2774 comprises the gene encoding luciferase under the human cytomegalovirus very early gene promoter [hCMV-IE].
(§2) The nucleic acid solutions are diluted to 20 μg/ml in physiological saline (0.15 M NaCl).
(§3) The products described in the invention are dissolved in water at a concentration varying from 40 to 160 μmol and mixed volume for volume with the DNA solution. The final saline concentration is 75 mmol.

[2] = test system: HepG2 cells; experiment: Toxicity of cytofectant mixtures, protein concentrations in cell lysates, HepG2 cells; conditions: for toxicity (in words): up to 160 μM of cationic lipid
Experimental: (§4) The cells are cultured under appropriate conditions in 24-well microplates (2 cm^2/well) and are transfected while they are in the exponential growth phase and at 50-70% confluence.
(§5) The cells are washed with twice 0.5 cm^3 of medium free of serum proteins and grown again either in serum-free medium (transfection in the absence of serum), or in complete medium (transfection in the presence of serum) 0.05 cm^3 of cytofectant mixture (0.5 μg DNA/well) are added to the cells (3 wells/condition DNA vector). When the cells are transfected in the absence of serum, the growth medium is supplemented 2 hours after transfection with the appropriate quantity of serum.
(§6) The toxicity of the cytofectant mixtures is estimated by a measurement of the protein concentrations in the cell lysates.

[3] = test system: HeLa cells; experiment: In vitro transfection efficiency, luciferase expression, HeLa cells; type: cell-based; conditions: for inhibition of transfection due to the presence of serum proteins (in words): presence vs absence of serum
Experimental: as §1, §2, §3

[4] = test system: HeLa cells; experiment: Toxicity of cytofectant mixtures, protein concentrations in cell lysates, HeLa cells; type: cell-based; conditions: up to 160 μM of cationic lipid
Experimental: as §4, §5, §6

[5] = Detergent action: solubilization of liposomes EPC/EPA (10:1) measured by turbidity; conditions: turbidity by spectrophotometer; compared with Triton X-100 (100% solubilization)
Description: For that, an in vitro model is used which represents the biological membranes, namely liposomes EPC/EPA (egg phosphatidylcholine/egg phosphatidic acid, 10:1).
These liposomes are formed by dissolving the various constituents in chloroform, and then evaporating the said chloroform with the aid of a rotary evaporator. The lipid film obtained is redispersed in water, and then the liposomes are formed by sonication and heating.
The evaluation of the detergent action of the product added to the liposomes is made by measuring the turbidity with the aid of a spectrophotometer.

[6] = HepG2 cells, absence of serum proteins
[7] = HeLa cells, absence of serum proteins

Molecule: CCCCCCCCCCCCCCCCCCNC(=O)C(CSSCC(NC(=O)CNCCCNCCCCNCCCN)C(=O)NCCCCCCCCCCCCCCCCCC)NC(=O)CNCCCNCCCCNCCCN (stereo not shown) [compound (VI), [NH2(CH2)3NH (CH2)4NH (CH2)3NHCH2CO—CyNH (CH2)17CH3]2]
- transgene expression in comparison with reference cationic lipid REF ([1]; HepG2 cells, absence of serum (FIG. 3)): 4 times
- survival ([2]; transfection in the absence of serum proteins, cationic lipid dose 160 μM): 80%

Molecule: NH2 (CH2)3NH(CH2)4NH(CH)3NHCH2COCys-[S—S—(CH2)17CH3]—NH (CH2)17CH3 [compound (II)]
- expression of the transgene compared with reference cationic lipid REF [1, 6]: up to 3 fold
- improvement of transfection compared with reference cationic lipid REF ([1]; HepG2 cells, presence of serum proteins): up to 40 fold
- inhibition of transfection due to the presence of serum proteins (in words) ([1]; HepG2 cells): no inhibitory effect
- toxicity (in words) [2]: no significant toxicity

Molecule: NH2(CH2)3NH(CH2)4NH(CH2)3NHCH2COCyS-[S—S-Cholesterol]—NH(CH2)17CH3 [compound (V)]
- gain in expression of the transgene, cholesterol instead of an alkyl chain (in words) ([1]; HepG2 cells (FIG. 9)): very significant gain
- inhibition of transfection due to the presence of serum proteins (in words) ([1]; HepG2 cells): no inhibition could be observed
- gain in expression of the transgene, cholesterol instead of an alkyl chain (in words) ([3]; HeLa cells (FIG. 9)): very significant gain
- inhibition of transfection due to the presence of serum proteins (in words) ([3]; HeLa cells): no inhibition could be observed
- toxicity (in words) [4]: no significant toxicity
- toxicity (in words) [2]: no significant toxicity

Molecule: NH2(CH2)3NH(CH2)4NH(CH2)3NHCH2COCys-[S—S—(CH2)4CH3]—N[(CH2)17CH3]2 [compound (I)]
- transfection results compared with reference cationic lipid REF (in words) [1, 6]: same order of magnitude
- inhibition of transfection due to the presence of serum proteins (in words) ([1]; HepG2 cells): no significant inhibition
- transfection results compared with reference cationic lipid REF (in words) [3, 7]: same order of magnitude
- inhibition of transfection due to the presence of serum proteins (in words) ([3]; HeLa cells): no significant inhibition
- toxicity (in words) [4]: no significant toxicity
- toxicity (in words) [2]: no significant toxicity

Molecule: NH2(CH2)3NH(CH2)4NH(CH2)3NHCH2COCys-[S—S—(CH2)11CH3]—N[(CH2)17CH3]2 [compound (IV)]
- expression of the transgene compared with reference cationic lipid REF [1, 6]: about 9 fold
- inhibition of transfection due to the presence of serum proteins (in words) ([1]; HepG2 cells): no significant inhibition
- expression of the transgene compared with reference cationic lipid REF [3, 7]: about 2 fold
- inhibition of transfection due to the presence of serum proteins (in words) ([3]; HeLa cells): no significant inhibition
- toxicity (in words) [4]: no significant toxicity
- toxicity (in words) [2]: no significant toxicity

Molecule: Triton X-100
- solubilization of the liposomes [5]: 100%
